ChEMBL document CHEMBL5465560, “Selectivity Literature for EUbOPEN Chemogenomic Library” (2024)
Blank lines part the entries; values can stand above or below the molecule they belong to.

Columns and labels:
[1] = target: T1, Mitogen-activated protein kinase 12 (Homo sapiens) (UniProt P53778); test: Selectivity interaction (Millipore kinase profiler) EUB0000124b MAPK12; conditions: at 10 µM
T1 sequence (whole entry): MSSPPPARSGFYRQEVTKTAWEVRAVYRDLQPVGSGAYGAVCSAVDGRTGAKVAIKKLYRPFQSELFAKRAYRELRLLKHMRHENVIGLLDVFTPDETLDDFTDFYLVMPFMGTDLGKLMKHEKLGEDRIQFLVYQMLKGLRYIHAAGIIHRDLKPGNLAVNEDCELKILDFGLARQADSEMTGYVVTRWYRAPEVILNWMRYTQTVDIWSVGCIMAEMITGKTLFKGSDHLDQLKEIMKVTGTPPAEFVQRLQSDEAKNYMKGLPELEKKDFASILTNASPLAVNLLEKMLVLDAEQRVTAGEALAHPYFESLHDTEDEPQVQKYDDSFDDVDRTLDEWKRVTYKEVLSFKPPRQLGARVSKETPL

[2] = target: Histone-lysine N-methyltransferase KMT5C (Homo sapiens) (UniProt Q86Y97); conditions: at 10 µM
[3] = target: T2, Mitogen-activated protein kinase 15 (Homo sapiens) (UniProt Q8TD08); conditions: at 10 µM
T2 sequence (whole entry): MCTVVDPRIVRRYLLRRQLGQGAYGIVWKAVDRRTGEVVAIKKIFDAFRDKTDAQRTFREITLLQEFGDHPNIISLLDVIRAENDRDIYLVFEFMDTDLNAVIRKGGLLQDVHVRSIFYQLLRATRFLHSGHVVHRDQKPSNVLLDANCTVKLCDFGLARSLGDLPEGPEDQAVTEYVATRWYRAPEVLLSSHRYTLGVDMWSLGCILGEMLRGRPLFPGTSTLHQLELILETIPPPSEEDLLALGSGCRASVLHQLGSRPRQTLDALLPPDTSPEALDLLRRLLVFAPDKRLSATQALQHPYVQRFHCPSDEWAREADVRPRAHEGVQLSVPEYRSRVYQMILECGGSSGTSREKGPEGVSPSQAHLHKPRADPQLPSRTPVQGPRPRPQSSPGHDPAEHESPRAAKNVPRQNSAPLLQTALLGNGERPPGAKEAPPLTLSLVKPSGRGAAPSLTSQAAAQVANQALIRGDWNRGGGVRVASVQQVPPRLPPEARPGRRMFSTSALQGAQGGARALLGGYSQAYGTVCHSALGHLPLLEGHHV

[4] = target: Serine/threonine-protein kinase MRCK gamma (Homo sapiens) (UniProt Q6DT37); conditions: at 10 µM
[5] = target: T3, Ephrin type-A receptor 3 (Homo sapiens) (UniProt P29320); test: Selectivity interaction (KinomeScan (DiscoverX)) EUB0001619a EPHA3; conditions: at 1 µM
T3 sequence (whole entry): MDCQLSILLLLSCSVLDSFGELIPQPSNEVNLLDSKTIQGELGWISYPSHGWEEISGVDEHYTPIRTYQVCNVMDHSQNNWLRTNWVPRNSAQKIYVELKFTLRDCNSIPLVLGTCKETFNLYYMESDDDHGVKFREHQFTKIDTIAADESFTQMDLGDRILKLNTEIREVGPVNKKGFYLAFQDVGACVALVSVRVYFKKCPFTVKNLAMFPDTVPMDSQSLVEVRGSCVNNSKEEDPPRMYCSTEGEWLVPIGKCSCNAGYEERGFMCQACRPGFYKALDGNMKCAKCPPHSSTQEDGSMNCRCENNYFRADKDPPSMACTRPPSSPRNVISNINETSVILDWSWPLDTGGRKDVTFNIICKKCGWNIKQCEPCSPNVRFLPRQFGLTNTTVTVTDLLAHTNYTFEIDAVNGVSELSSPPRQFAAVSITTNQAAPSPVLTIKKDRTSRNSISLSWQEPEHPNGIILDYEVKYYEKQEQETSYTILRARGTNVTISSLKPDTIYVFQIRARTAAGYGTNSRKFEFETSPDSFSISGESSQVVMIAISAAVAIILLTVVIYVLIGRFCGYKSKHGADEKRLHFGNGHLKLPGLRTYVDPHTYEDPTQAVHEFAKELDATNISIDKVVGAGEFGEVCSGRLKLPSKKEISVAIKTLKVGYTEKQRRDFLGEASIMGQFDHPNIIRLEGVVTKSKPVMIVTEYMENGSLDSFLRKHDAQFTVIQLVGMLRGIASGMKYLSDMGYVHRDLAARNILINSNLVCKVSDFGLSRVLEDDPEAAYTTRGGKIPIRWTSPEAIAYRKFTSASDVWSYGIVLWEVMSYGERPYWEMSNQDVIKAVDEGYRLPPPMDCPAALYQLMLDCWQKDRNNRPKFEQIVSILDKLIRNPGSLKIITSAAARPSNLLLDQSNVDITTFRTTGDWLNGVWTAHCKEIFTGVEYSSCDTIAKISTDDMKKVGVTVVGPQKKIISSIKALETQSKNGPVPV

[6] = target: Casein kinase I isoform epsilon (Homo sapiens, UniProt P49674); test: Selectivity interaction (KinomeScan (DiscoverX)) EUB0000618a CSNK1E; conditions: at 10 µM
[7] = target: T4, MAP/microtubule affinity-regulating kinase 4 (Homo sapiens) (UniProt Q96L34); test: Selectivity interaction (Kinase panel (DSF assay)) EUB0001559a MARK4
T4 sequence (whole entry): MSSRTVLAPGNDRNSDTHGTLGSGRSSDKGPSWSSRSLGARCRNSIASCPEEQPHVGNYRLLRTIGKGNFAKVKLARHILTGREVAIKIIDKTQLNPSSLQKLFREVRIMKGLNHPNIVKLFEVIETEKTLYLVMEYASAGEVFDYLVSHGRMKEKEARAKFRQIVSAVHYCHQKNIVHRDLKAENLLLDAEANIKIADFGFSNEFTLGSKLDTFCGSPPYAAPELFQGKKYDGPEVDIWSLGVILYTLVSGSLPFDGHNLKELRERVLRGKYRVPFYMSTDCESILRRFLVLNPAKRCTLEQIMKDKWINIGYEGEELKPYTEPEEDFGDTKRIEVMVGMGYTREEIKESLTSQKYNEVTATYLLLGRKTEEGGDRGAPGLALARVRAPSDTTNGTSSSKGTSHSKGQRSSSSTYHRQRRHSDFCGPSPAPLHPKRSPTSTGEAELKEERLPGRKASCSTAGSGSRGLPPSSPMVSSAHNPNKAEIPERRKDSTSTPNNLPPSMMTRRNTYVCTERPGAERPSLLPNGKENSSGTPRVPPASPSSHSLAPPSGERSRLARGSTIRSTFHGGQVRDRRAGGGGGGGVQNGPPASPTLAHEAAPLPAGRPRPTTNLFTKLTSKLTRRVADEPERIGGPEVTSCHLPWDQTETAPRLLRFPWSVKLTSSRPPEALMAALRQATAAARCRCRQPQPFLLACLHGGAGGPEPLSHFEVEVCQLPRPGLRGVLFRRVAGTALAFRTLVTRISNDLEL

Sequence of Casein kinase I isoform epsilon (P49674 whole entry, looked up, canonical isoform): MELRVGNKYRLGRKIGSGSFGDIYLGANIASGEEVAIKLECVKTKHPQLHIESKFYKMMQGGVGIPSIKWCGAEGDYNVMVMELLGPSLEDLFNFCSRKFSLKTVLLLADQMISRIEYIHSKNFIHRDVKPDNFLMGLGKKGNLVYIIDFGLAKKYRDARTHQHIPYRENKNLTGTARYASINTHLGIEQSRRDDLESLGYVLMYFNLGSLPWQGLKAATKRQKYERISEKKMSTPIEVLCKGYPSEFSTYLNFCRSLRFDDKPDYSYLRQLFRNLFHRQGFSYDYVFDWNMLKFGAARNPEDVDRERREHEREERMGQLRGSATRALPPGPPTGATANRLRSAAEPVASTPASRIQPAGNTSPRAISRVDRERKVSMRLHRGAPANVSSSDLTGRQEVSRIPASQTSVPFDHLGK
Sequence of Serine/threonine-protein kinase MRCK gamma (Homo sapiens) (Q6DT37 whole entry): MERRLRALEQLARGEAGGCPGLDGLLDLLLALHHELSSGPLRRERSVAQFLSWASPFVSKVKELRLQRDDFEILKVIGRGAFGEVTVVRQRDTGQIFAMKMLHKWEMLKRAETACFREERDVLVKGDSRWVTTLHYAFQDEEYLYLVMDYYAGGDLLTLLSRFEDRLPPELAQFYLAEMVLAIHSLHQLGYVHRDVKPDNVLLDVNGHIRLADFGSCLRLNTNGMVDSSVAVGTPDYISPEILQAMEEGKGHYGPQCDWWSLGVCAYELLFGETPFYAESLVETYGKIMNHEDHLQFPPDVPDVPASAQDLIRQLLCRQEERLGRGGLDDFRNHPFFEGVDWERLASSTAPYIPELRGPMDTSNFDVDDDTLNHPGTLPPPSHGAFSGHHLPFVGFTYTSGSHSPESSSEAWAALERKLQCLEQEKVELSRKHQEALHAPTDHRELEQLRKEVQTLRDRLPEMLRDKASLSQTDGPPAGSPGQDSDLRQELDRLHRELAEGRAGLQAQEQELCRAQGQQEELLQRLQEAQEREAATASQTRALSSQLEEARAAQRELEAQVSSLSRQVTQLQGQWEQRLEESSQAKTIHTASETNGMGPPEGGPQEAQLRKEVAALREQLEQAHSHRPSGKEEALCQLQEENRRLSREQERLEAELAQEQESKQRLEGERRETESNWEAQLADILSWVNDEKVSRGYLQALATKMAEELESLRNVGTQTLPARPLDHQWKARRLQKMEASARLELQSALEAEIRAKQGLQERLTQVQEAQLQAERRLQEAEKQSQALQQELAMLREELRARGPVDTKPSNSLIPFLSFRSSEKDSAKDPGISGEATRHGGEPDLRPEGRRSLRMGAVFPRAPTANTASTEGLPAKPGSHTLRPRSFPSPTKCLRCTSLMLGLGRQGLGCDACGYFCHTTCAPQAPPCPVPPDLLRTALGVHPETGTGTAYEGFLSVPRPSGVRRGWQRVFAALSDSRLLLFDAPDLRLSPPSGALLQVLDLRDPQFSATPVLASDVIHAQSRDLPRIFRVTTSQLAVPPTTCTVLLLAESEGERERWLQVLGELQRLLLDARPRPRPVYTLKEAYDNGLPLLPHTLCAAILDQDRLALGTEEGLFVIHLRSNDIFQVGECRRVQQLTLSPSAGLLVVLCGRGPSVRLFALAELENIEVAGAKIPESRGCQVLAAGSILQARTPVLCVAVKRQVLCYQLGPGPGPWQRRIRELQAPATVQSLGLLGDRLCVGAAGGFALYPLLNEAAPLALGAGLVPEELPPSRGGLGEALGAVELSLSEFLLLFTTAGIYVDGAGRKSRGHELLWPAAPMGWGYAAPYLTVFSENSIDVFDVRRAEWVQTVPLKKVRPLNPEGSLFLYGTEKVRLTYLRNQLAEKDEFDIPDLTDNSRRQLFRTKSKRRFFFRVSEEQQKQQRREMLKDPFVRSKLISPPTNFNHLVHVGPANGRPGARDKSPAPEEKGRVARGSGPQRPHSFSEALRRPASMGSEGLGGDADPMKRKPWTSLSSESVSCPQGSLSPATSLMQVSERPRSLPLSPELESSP
Sequence of Histone-lysine N-methyltransferase KMT5C (Homo sapiens) (Q86Y97 whole entry, looked up): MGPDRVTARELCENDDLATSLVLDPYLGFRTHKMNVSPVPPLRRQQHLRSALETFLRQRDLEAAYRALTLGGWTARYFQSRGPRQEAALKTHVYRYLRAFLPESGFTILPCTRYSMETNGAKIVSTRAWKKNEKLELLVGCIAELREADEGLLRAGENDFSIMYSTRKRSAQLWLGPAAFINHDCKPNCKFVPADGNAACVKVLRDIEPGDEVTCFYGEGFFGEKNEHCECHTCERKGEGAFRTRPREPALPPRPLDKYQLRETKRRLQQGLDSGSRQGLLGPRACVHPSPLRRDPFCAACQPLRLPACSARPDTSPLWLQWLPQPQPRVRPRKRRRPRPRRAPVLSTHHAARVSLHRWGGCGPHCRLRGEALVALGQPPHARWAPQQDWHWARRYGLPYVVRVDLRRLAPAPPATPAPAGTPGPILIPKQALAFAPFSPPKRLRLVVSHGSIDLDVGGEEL

Structure (SMILES): CC(=O)Nc1cccc(-n2c(=O)n(C3CC3)c(=O)c3c(Nc4ccc(I)cc4F)n(C)c(=O)c(C)c32)c1
% of control [1]: 97%

Structure (SMILES): N#Cc1cccc(-c2c[nH]c3ncnc(N4CCOCC4)c23)c1
% of control [5]: 66%

Structure (SMILES): O[C@H]1CC[C@H](Nc2ncc3nc(Nc4c(F)cc(F)cc4F)n([C@H]4CCOC4)c3n2)CC1
% of control [6]: 11%

More lines, main results first:

% activity [2]: > 90%
Structure (SMILES): CNCCN1CCC(c2cc(CN(C)C(=O)c3cccc(Oc4ccccc4)c3)ccn2)CC1

% of control [4]: 100%
Structure (SMILES): CCN(CC)CCCCNc1ncc2cc(-c3cc(OC)cc(OC)c3)c(NC(=O)NC(C)(C)C)nc2n1
% of control [3]: 100%

dTM [7]: 0.9 K
Structure (SMILES): CN(C(=O)c1cnn2cccnc12)c1cc2c(cc1N1CCOCC1)C(=O)N(C[C@@H](F)C(C)(C)O)C2
